What was measured:
[1] = body weight and general toxicity in the B-16/F10 melanoma study; type: in vivo, C57BL/6 mice; conditions: for Body weight (grams): 10 mg/kg IM (5 days/week for 2 weeks)
Description: (§1) Highly metastatic B-16/F10 melanoma cells were injected into the tail veins of female C57BL/6 mice (1×10^5 cells per mouse). Treatment of one group of mice with the phosphonate compound of the above formula (compound VIII), dissolved into 0.5mL ethanol, 0.5 mL cremaphor and 9.0 mL phosphate buffered saline, began three days after the tumor cells were injected. lntramuscular injections of 0.2 mL of the phosphonate emulsion (10 mg/kg/day) were given for 5 days per week for 2 weeks. A second group of mice were treated with Adriamycin (10 mg/kg given intravenously on days 0, 4 and 8) as a known anti-cancer drug control group, while a third group of mice received the vehicle emulsion alone. The mice were examined every day for general health, behaviour and body weight. Counts of metastatic melanomic tumor colonies found in the lungs, general observations of metastasis to distant organs and examination of organs (liver, kidneys, lungs and spleen) were taken at autopsy 4 weeks after treatment.

[2] = tested on: JRT3T3, a human T-cell lymphoma; experiment: colonogenic cell survival assay; type: cell-based; conditions: 120 h, read-out: Colonies formed after 5-days (% of control)
Description: (§2) Inhibition of colony formation in soft agar medium (colonogenic cell survival assay) is a more rigorous and direct measurement of cell kill or growth inhibition, and reflects the anti-cancer activity of the test compound. Briefly, tumor cells were cultured in petri dishes in methylcellulose, with or without a phosphonate test compound, and the number of colonies formed during a 5-day incubation period were counted.
(§3) The anti-cancer activity of the phosphonate of the following formula: [drawing 16] against human leukemia and lymphoma was also studied using the colonogenic cell survival assay. DHL4, a human B cell lymphoma; HeL, a human erythroid leukemia: JRT3T3, a human T-cell lymphoma; and KG 1α, a human mycloid leukemia, were evaluated for their sensitivity to the cytotoxic activity of the phosphonate of the above formula (compound VIII).

[3] = tested on: DHL4, a human B cell lymphoma; experiment: colonogenic cell survival assay; type: cell-based; conditions: 120 h, read-out: Colonies formed after 5-days (% of control)
Description: as §2, §3

[4] = tested on: KG1α, a human myeloid leukemia; experiment: colonogenic cell survival assay; type: cell-based; conditions: KG-1a, 120 h, read-out: Colonies formed after 5-days (% of control)
Description: as §2, §3

[5] = tested on: HeL, a human erythroid leukemia; experiment: colonogenic cell survival assay; type: cell-based; conditions: 120 h, read-out: Colonies formed after 5-days (% of control)
Description: as §2, §3

[6] = tested on: LLC tumor cells (Lewis Lung carcinoma); experiment: colonogenic cell survival assay; type: cell-based; conditions: Mus musculus, 120 h, read-out: Colonies formed after 5 days (% of control)
Description: as §2
Lewis Lung carcinoma (LLC), a cancer cell linc derived from […] of mice, was evaluated for its sensitivity to the cytotoxic activity of phosphonates of the following structure using the colonogenic cell survival assay (described above): [drawing 19]

[7] = tested on: L1210 (B-cell lymphoma) cells; experiment: survival of CD1 mice injected with L1210 lymphoma cells; type: in vivo; conditions: 10 mg/kg per day IM
Description: The effects of phosphonates in a mouse model of lymphoma were also studied. Mice (CD 1) were injected with 1×10^6 L1210 (B-cell lymphoma) cells intraperitoneally. In one group the mice received the phosphonate compound of the following formula at 10 mg/kg per day intramuscularly, while a second group of mice received no treatment: [drawing 18]

[8] = tested on: HT-29 (human colorectal cancer); experiment: colonogenic cell survival assay; type: cell-based; conditions: 120 h, read-out: Colonies formed (% of control)
Description: as §2
(§4) The anti-cancer activity of the phosphonate compound of the formula shown above (compound VIII) was examined in human melanoma and colorectal tumor cell lines using the colonogenic cell survival assay (described above). RPMI-7951 (human melanoma) and HT-29 (human colorectal cancer) tumor cell lines were evaluated for their sensitivity to the cytotoxic activity of the above phosphonate (compound VIII).

[9] = tested on: RPMI-7951 (human melanoma); experiment: colonogenic cell survival assay; type: cell-based; conditions: 120 h, read-out: Colonies formed (% of control)
Description: as §2, §4

B-16/F10 melanoma cells = experiment: B-16/F10 melanoma metastasis in C57BL/6 mice; type: in vivo; conditions: 10 mg/kg IM (5 days/week for 2 weeks)
Description: as §1

[10] = tested on: human colorectal cell line (HT-29); experiment: HT-29 tumor growth in nude mice; type: in vivo; conditions: orally once a day, 5 mg/Kg body weight; HT-29 subcutaneous in nude mice
Description: Studies were also performed with nude mice injected with the human colorectal cell line (HT-29) subcutaneously.

## CCCCCCCCCCCCCCCCOCC(CCP(=O)([O-])OCC[N+](C)(C)C)OC (stereo not shown) [compound VIII]
[1]; Mouse 1, day 0
  Body weight (grams): 19 grams
[1]; Mouse 1, day 12
  Body weight (grams): 20 grams
[1]; Mouse 1, day 26
  Body weight (grams): 23 grams
[1]; Mouse 2, day 0
  Body weight (grams): 19 grams
[1]; Mouse 2, day 12
  Body weight (grams): 20 grams
[1]; Mouse 2, day 26
  Body weight (grams): 22 grams
[1]; Mouse 3, day 0
  Body weight (grams): 19 grams
[1]; Mouse 3, day 12
  Body weight (grams): 21 grams
[1]; Mouse 3, day 26
  Body weight (grams): 24 grams
[1]; Mouse 4, day 0
  Body weight (grams): 20 grams
[1]; Mouse 4, day 12
  Body weight (grams): 21 grams
[1]; Mouse 4, day 26
  Body weight (grams): 25 grams
[1]; Mouse 5, day 0
  Body weight (grams): 19 grams
[1]; Mouse 5, day 12
  Body weight (grams): 21 grams
[1]; Mouse 5, day 26
  Body weight (grams): 24 grams
[1]; Mouse 6, day 0
  Body weight (grams): 20 grams
[1]; Mouse 6, day 12
  Body weight (grams): 21 grams
[1]; Mouse 6, day 26
  Body weight (grams): 24 grams
[1]; intramuscularly, 10 mg/kg for 2 weeks
  toxicity (weight, behaviour and appearance of the mice; in words): not toxic
[2]; 1.25 μM
  activity at 1.25 µM: 87 ± 6%
[2]; 2.5 μM
  activity at 2.5 µM: 65 ± 7%
[2]; 5 μM
  activity at 5 µM: 34 ± 5%
[2]; 10 μM
  activity at 10 µM: 20 ± 3%
[2]; 20 μM
  activity at 20 µM: 8 ± 2%
[2]; 40 μM
  activity at 40 µM: 3 ± 1%
[3]; 1.25 μM
  activity at 1.25 µM: 76 ± 7%
[3]; 2.5 μM
  activity at 2.5 µM: 61 ± 5%
[3]; 5 μM
  activity at 5 µM: 42 ± 6%
[3]; 10 μM
  activity at 10 µM: 18 ± 4%
[3]; 20 μM
  activity at 20 µM: 5 ± 1%
[3]; 40 μM
  activity at 40 µM: 0%
[4]; 1.25 μM
  activity at 1.25 µM: 78 ± 8%
[4]; 2.5 μM
  activity at 2.5 µM: 56 ± 6%
[4]; 5 μM
  activity at 5 µM: 41 ± 4%
[4]; 10 μM
  activity at 10 µM: 15 ± 3%
[4]; 20 μM
  activity at 20 µM: 7 ± 1%
[4]; 40 μM
  activity at 40 µM: 4 ± 1%
[5]; 1.25 μM
  activity at 1.25 µM: 91 ± 8%
[5]; 2.5 μM
  activity at 2.5 µM: 72 ± 5%
[5]; 5 μM
  activity at 5 µM: 58 ± 4%
[5]; 10 μM
  activity at 10 µM: 26 ± 5%
[5]; 20 μM
  activity at 20 µM: 12 ± 3%
[5]; 40 μM
  activity at 40 µM: 1 ± 0.5%
[6]; 1.25 μM
  activity at 1.25 µM: 97 ± 9%
[6]; 2.5 μM
  activity at 2.5 µM: 81 ± 6%
[6]; 5 μM
  activity at 5 µM: 67 ± 5%
[6]; 10 μM
  activity at 10 µM: 53 ± 4%
[6]; 20 μM
  activity at 20 µM: 37 ± 5%
[6]; 40 μM
  activity at 40 µM: 19 ± 6%
[7]; day 0 after injection of L1210 cells
  % Survival: 100%
[7]; day 7 after injection of L1210 cells
  % Survival: 100%
[7]; day 8 after injection of L1210 cells
  % Survival: 100%
[7]; day 19 after injection of L1210 cells
  % Survival: 100%
[7]; day 21 after injection of L1210 cells
  % Survival: 100%
[7]; up to 21 days of observation
  deaths among treated animals (in words): None of the phosphonate-treated (compound VIII) animals died
[8]; 2.5 μM
  activity at 2.5 µM: 74%
[8]; 5 μM
  activity at 5 µM: 51%
[8]; 10 μM
  activity at 10 µM: 22%
[8]; 20 μM
  activity at 20 µM: 8%
[8]; 40 μM
  activity at 40 µM: 0%
[9]; 2.5 μM
  activity at 2.5 µM: 68%
[9]; 5 μM
  activity at 5 µM: 43%
[9]; 10 μM
  activity at 10 µM: 13%
[9]; 20 μM
  activity at 20 µM: 3%
[9]; 40 μM
  activity at 40 µM: 0%
B-16/F10 melanoma cells
  melanomic metastasis to distant organs at autopsy (in words): no traces of melanomic metastasis to distant organs were evident in five of six animals
B-16/F10 melanoma cells; Mouse 1
  Melanomic tumor colonies found in the lungs at autopsy: 2
B-16/F10 melanoma cells; Mouse 2
  Melanomic tumor colonies found in the lungs at autopsy: 0
B-16/F10 melanoma cells; Mouse 3
  Melanomic tumor colonies found in the lungs at autopsy: 1
B-16/F10 melanoma cells; Mouse 4
  Melanomic tumor colonies found in the lungs at autopsy: 0
B-16/F10 melanoma cells; Mouse 5
  Melanomic tumor colonies found in the lungs at autopsy: 0
B-16/F10 melanoma cells; Mouse 6
  Melanomic tumor colonies found in the lungs at autopsy: 3
[10]
  retardation of tumor growth: 30-40%

— patent publication US5506217A, “Phosphonates as anti-cancer agents” (The University of British Columbia, priority 1994, dated 1996)
